The test system of one assay is TNFα release. The assay is described as follows: LPS-induced TNFα release in diluted human blood (ELISA). Type of assay: cell-based. Conditions: LPS 1 μg/ml, human blood diluted 1:5, 24 h; read-out: IC50 value in the TNFα inhibitory assay. The text has this:
Isolated leukocytes can be stimulated for the release of cytokines in different ways. Lipopolysaccharides (LPS) are a stimulus for the investigation of the TNFα release. LPS is part of bacterial cell walls and is released when the bacteria are killed (by antibiotics or the natural immune system). LPS stimulates in particular the activity of phagocytizing leukocytes (tissue macrophages, granulocytes, monocytes) and causes the infiltration of leukocytes from the peripheral blood into the affected tissue. A cytokine of special significance for these mechanisms is TNFα which is secreted in large amounts by the affected cells. The main source are here monocytes and macrophages. TNFα initiates and prolongs the inflammatory process in cooperation with other mediators.
For the investigation of the effect on the LPS-induced TNFα release a method was used which was described by Marx, D., Tassabehji, M., Heer, S., Hüttenbrink, K.-B., and I. Szelenyi, Pulmonary Pharmacology & Therapeutics (2002) 15, 7-15. The method is briefly: Human blood was taken from various donors, rendered incoagulable by the addition of 10 mM Na citrate and diluted 1:5 with RPMI 1640 cell culture medium. The test substances were added to the blood samples at various concentrations. 15 min later, the leukocytes were stimulated by the addition of lipopolysaccharides (LPS) from Salmonella abortus equi at a final concentration of 1 μg/ml. After the incubation of the test batches at 37° C. and under 5% CO2 in a water-saturated air for 24 h, the blood was centrifuged and the TNFα concentration in the cell-free supernatant was accurately measured using a purchasable ELISA (BD Biosciences) according to the manufacturer's instructions.
Background: ELISA stands for enzyme-linked immunosorbent assay.

The target of another assay is T1, PDE-4A (Homo sapiens, UniProt P27815).
T1 construct: PDE-4A catalytic domain comprising amino acids 342-704; made in house; host or cells: Escherichia coli
T1 sequence (P27815 342-704): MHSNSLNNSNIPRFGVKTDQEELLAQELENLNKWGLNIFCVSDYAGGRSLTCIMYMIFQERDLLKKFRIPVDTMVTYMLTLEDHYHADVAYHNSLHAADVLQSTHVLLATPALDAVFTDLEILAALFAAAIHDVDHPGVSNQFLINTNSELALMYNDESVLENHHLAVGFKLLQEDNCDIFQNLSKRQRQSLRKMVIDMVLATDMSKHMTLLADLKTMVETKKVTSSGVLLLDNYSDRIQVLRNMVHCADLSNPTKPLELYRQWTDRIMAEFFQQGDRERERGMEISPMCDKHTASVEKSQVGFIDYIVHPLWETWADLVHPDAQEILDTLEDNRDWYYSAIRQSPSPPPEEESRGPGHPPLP
The assay is described as follows: PDE-4A inhibitory assay (SPA). Type of assay: biochemical. The method in brief: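 Human recombinant PDE-4A catalytic domain (aa 342-704), E. coli-expressed. SPA with 1 μM [^3H]-cAMP substrate in 100 mM Tris-HCl pH 7.5, 5 mM MgCl2, 1% DMSO; 20 min at 22° C. Non-specific activity with 100 μM rolipram subtracted.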

Counter-ions that a name gives are not always drawn. Where only a bound is given, the exact number is not on record here.

The text below walks through data of US8058285B2, “Substituted pyrido [3′, 2′: 4, 5] thieno [3, 2-D] pyrimidines and pyrido [3′, 2′: 4, 5] furo [3, 2-D] pyrimidines used as inhibitors of the PDE-4 and/or the release of TNF-ALPHA” (The Medicines Company (Leipzig) GmbH, priority 2004, dated 2011).

Broadly, the IC50 is the point on the concentration scale where inhibition reaches its midpoint. Consider `Cc1cc(-c2ccccc2)nc2sc3c(N4CCNCC4)nc(OCCO)nc3c12` [2-(2-Hydroxy-ethoxy)-9-methyl-7-phenyl-4-(piperazin-1-yl)-pyrido[3′,2′:4,5]thieno[3,2-d]pyrimidine], for which the IC50 is < 2000 nM in the assay on TNFα release and 2 to 50 nM against PDE-4A.

In the case of `CCOc1nc(N2CCNCC2)c2sc3nc(C)c(Cc4ccc([N+](=O)[O-])cc4)c(C)c3c2n1` [2-Ethoxy-7,9-dimethyl-8-(4-nitro-benzyl)-4-(piperazin-1-yl)-pyrido[3′,2′:4,5]thieno[3,2-d]pyrimidine], the 50% inhibitory concentration (IC50) was < 2000 nM with TNFα release and 2 to 50 nM against PDE-4A.

Consider `CCOc1nc(N2CCNCC2)c2sc3nc(-c4ccc(OC)c(OC)c4)cc(C)c3c2n1` [2-Ethoxy-7-(3,4-dimethoxy-phenyl)-9-methyl-4-(piperazin-1-yl)-pyrido[3′,2′:4,5]thieno[3,2-d]pyrimidine], for which the 50% inhibitory concentration (IC50) is < 2000 nM in the assay with TNFα release and 2 to 50 nM against PDE-4A.

As to `CCOc1nc(N2CCNCC2)c2sc3nc(-c4ccc(OC)cc4)cc(C)c3c2n1` [2-Ethoxy-7-(4-methoxy-phenyl)-9-methyl-4-(piperazin-1-yl)-pyrido[3′,2′:4,5]thieno[3,2-d]pyrimidine], the figures for the IC50 in the assay on TNFα release and on PDE-4A were < 2000 nM and 2 to 50 nM, respectively.

Consider `CCOc1nc(N2CCNCC2)c2sc3nc(-c4ccc(C(F)(F)F)cc4)cc(C)c3c2n1` [2-Ethoxy-7-(4-trifluoro-methyl-phenyl)-9-methyl-4-(piperazin-1-yl)-pyrido[3′,2′:4,5]thieno[3,2-d]pyrimidine], for which the 50% inhibitory concentration (IC50) with TNFα release is < 2000 nM; on PDE-4A, 2 to 50 nM.

In the case of `CCOc1nc(N2CCNCC2)c2sc3nc(C)cc(-c4ccccc4)c3c2n1` [2-Ethoxy-7-methyl-9-phenyl-4-(piperazin-1-yl)-pyrido[3′,2′:4,5]thieno[3,2-d]pyrimidine-hydrochloride], the IC50 in the assay with TNFα release was < 2000 nM.

With `CCOc1nc(N2CCNCC2)nc2c1sc1nc(-c3ccc(C(N)=O)cc3)cc(C(F)(F)F)c12` [4-(4-Ethoxy-9-trifluoromethyl-2-piperazin-1-yl-pyrido[3′,2′:4,5]thieno[3,2-d]pyrimidin-7-yl)-benzamide trifluoroacetate], the 50% inhibitory concentration (IC50) in the assay on TNFα release is < 2000 nM.

As to `CCOc1nc(N2CCNCC2)nc2c1sc1nc(-c3ccncc3)cc(C(F)(F)F)c12` [4-Ethoxy-2-(piperazin-1-yl)-7-(4-pyridyl)-9-trifluoromethyl-pyrido[3′,2′:4,5]thieno[3,2-d]pyrimidine], the IC50 in the assay with TNFα release was < 2000 nM; against PDE-4A it was 2 to 50 nM.

For the molecule `CCOc1nc(N2CCNCC2)nc2c1sc1nc(-c3cccnc3)cc(C(F)(F)F)c12` [4-Ethoxy-2-piperazin-1-yl-7-(3-pyridyl)-9-trifluoromethyl-pyrido[3′,2′:4,5]thieno[3,2-d]pyrimidine], the IC50 is < 2000 nM with TNFα release and 2 to 50 nM against PDE-4A.

In the case of `CCOc1nc(N2CCNCC2)nc2c1sc1nc(C)c(Cc3ccc([N+](=O)[O-])cc3)c(C)c12` [4-Ethoxy-7,9-dimethyl-8-(4-nitro-benzyl)-2-(piperazin-1-yl)-pyrido[3′,2′:4,5]thieno[3,2-d]pyrimidine], the IC50 in the assay with TNFα release is < 2000 nM; on PDE-4A, 2 to 50 nM.

Consider `CCOc1nc(N2CCNCC2)nc2c1sc1nc(-c3ccccc3)cc(-c3ccccc3)c12` [4-Ethoxy-7,9-diphenyl-2-(piperazin-1-yl)-pyrido[3′,2′:4,5]thieno[3,2-d]pyrimidine], for which the values for the half-inhibitory concentration (IC50) in the assay on TNFα release and against PDE-4A were < 2000 nM and 2 to 50 nM, respectively.

As to `CCCOc1nc(N2CCNCC2)c2sc3nc(-c4ccc(OCC)cc4)cc(CC)c3c2n1` [7-(4-Ethoxy-phenyl)-9-ethyl-4-(piperazin-1-yl)-2-n-propoxy-pyrido[3′,2′:4,5]thieno[3,2-d]pyrimidine], the IC50 on PDE-4A was in the range of 2 to 50 nM.

Take `CCOc1nc(N2CCNCC2)nc2c1sc1nc(-c3ccc(-c4c(C)noc4C)cc3)nc(C)c12` [7-(4-[3,5-Dimethyl-isoxazol-4-yl]-phenyl)-4-ethoxy-9-methyl-2-piperazin-1-yl-thieno[2,3-d:4,5-d′]dipyrimidine]: the IC50 against PDE-4A is < 2 nM.

For the molecule `CCCCOc1ccc(Oc2ccc(-c3nc(C)c4c(n3)sc3c(OCC)nc(N5CCNCC5)nc34)cc2)cc1` [7-(4-[4-n-Butoxy-phenoxy]phenyl)-4-ethoxy-9-methyl-2-piperazin-1-yl-thieno[2,3-d:4,5-d′]dipyrimidine], on PDE-4A, the half-maximal inhibitory concentration (IC50) lay within 2 to 50 nM.

Molecule `CCOc1nc(N2CCNCC2)nc2c1sc1nc(-c3ccc(C(C)(C)C)cc3)nc(C)c12` [7-(4-tert-Butyl-phenyl)-4-ethoxy-9-methyl-2-piperazin-1-yl-thieno[2,3-d:4,5-d′]dipyrimidine] registered an IC50 against PDE-4A of 2 to 50 nM.

With `CCOc1nc(N2CCNCC2)nc2c1sc1nc(-c3ccc(-c4ccc(N)cc4)cc3)nc(C)c12` [7-(4′-Aminobiphen-4-yl)-4-ethoxy-9-methyl-2-piperazin-1-yl-thieno[2,3-d:4,5-d′]dipyrimidine], on PDE-4A, the 50% inhibitory concentration (IC50) was < 2 nM.

Turning to `CCOc1nc(N2CCNCC2)nc2c1sc1nc(Cc3ccccc3)nc(C)c12` [7-Benzyl-4-ethoxy-9-methyl-2-piperazin-1-yl-thieno[2,3-d:4,5-d′]dipyrimidine], the half-inhibitory concentration (IC50) against PDE-4A fell in the range of 2 to 50 nM.

`CCOc1nc(N2CCNCC2)nc2c1sc1nc(N3CCOCC3)c3c(c12)CCC3` [7-Ethoxy-2,3-dihydro-4-morpholino-9-piperazin-1yl-1H-cyclopenta[4′,5′]pyrido[3′,2′:4,5]thieno[3,2-d]pyrimidine] showed a half-maximal inhibitory concentration (IC50) on PDE-4A of 2 to 50 nM.

Molecule `CCOc1nc(N2CCNCC2)nc2c1sc1nc(N3CCOCC3)c3c(c12)CCN(C)C3` [8-Ethoxy-3-methyl-5-morpholino-10-piperazin-1-yl-pyrimido[4′,5′:4,5]thieno[2,7]-1,2,3,4-tetrahydro-naphthyridine] gave a concentration for half-maximal inhibition (IC50) against PDE-4A of 2 to 50 nM.

For the molecule `CCOc1nc(N2CCNCC2)nc2c1sc1nc(N3CCN(C)CC3)c3c(c12)CCCC3` [8-Ethoxy-5-(N-methyl-piperazin-1-yl)-10-piperazin-1-yl-pyrimido[4′,5′:4,5]thieno[2,3-c]-1,2,3,4-tetrahydro-isoquinoline], on PDE-4A, the 50% inhibitory concentration (IC50) lay within 2 to 50 nM.

On to `CCOc1nc(N2CCNCC2)nc2c1sc1nc(-c3ccccc3)c3c(c12)CCCC3` [8-Ethoxy-5-phenyl-10-piperazin-1-yl-pyrimido[4′,5′:4,5]thieno[2,3-c]-1,2,3,4-tetrahydro-isoquinoline-hydrochloride], for which the concentration for half-maximal inhibition (IC50) on PDE-4A was 2 to 50 nM.

For the molecule `CCOc1nc(N2CCNCC2)nc2c1sc1nc(N3CCCCC3)c3c(c12)CCCC3` [8-Ethoxy-5-piperidino-10-piperazin-1-yl-pyrimido[4′,5′:4,5]thieno[2,3-c]-1,2,3,4-tetrahydro-isoquinoline-hydrochloride], at PDE-4A, the IC50 was 2 to 50 nM.

For the molecule `CCOc1nc(N2CCNCC2)nc2c1sc1nc(-c3ccc(Cl)cc3)cc(C(F)F)c12` [9-Difluoromethyl-7-(4-chloro-phenyl)-4-ethoxy-2-piperazin-1-yl-pyrido[3′,2′:4,5]thieno[3,2-d]pyrimidine], the IC50 against PDE-4A lay in the range of 2 to 50 nM.

For `CCOc1nc(N2CCNCC2)nc2c1sc1nc(N3CCOCC3)c3c(c12)CCCCC3` [9-Ethoxy-6-morpholino-11-(piperazin-1-yl)-2,3,4,5-tetrahydro-1H-cyclohepta[4′,5′]pyrido[3′,2′:4,5]thieno[3,2-d]pyrimidine], the IC50 at PDE-4A lay in the range of 2 to 50 nM.

On PDE-4A, `Cc1cc(-c2ccccc2)nc2sc3c(OC(C)C)nc(N4CCNCC4)nc3c12` [9-Methyl-7-phenyl-2-(piperazin-1-yl)-4-iso-propoxy-pyrido[3′,2′:4,5]thieno[3,2-d]pyrimidine] yielded an IC50 of 2 to 50 nM.

On PDE-4A, `Cc1cc(-c2ccccc2)nc2sc3c(N4CCNCC4)nc(OC(C)C)nc3c12` [9-Methyl-7-phenyl-4-(piperazin-1-yl)-2-iso-propoxy-pyrido[3′,2′:4,5]thieno[3,2-d]pyrimidine] gave an IC50 of 2 to 50 nM.

At PDE-4A, `CCCc1nc(N2CCNCC2)c2sc3nc(-c4ccccc4)cc(C)c3c2n1` [9-Methyl-7-phenyl-4-(piperazin-1-yl)-2-n-propyl-pyrido[3′,2′:4,5]thieno[3,2-d]pyrimidine] yielded an IC50 of 2 to 50 nM.

In turn, `CCCOc1nc(N2CCNCC2)c2sc3nc(-c4ccccc4)cc(C)c3c2n1` [9-Methyl-7-phenyl-4-piperazin-1-yl-2-n-propoxy-pyrido[3′,2′:4,5]thieno[3,2-d]pyrimidine] returned a concentration for half-maximal inhibition (IC50) at PDE-4A of 2 to 50 nM.

On to `CCOc1nc(N2CCNCC2)nc2c1sc1nc(-c3ccc(C)cc3)cc(CC(C)C)c12` [9-iso-Butyl-4-ethoxy-7-(4-methyl-phenyl)-2-(piperazin-1-yl)-pyrido[3′,2′:4,5]thieno-[3,2-d]pyrimidine], for which, on PDE-4A, the IC50 fell in the range of 2 to 50 nM.

On to `CCOc1nc(N2CCNCC2)c2sc3nc(-c4ccccc4)c4c(c3c2n1)CCCC4` [10-Ethoxy-5-phenyl-8-piperazin-1-yl-pyrimido[4′,5′:4,5]thieno[2,3-c]-1,2,3,4-tetrahydro-isoquinoline], for which the IC50 against PDE-4A fell in the range of 2 to 50 nM.
